PubChem BioAssay AID2060337 (Molecular Pharmacology Branch, DTP, NCI, 2025)
pIC50: −log10 of the molar value. Where “and” joins values, the source holds several entries; their conditions need not be identical. Equal entries are not always repeated.

Test system: 832693-133-R-J1-PDC multi-cell spheroids, viability
Test: Anticancer human tumor 832693-133-R-J1-PDC patient-derived head and neck squamous carcinoma cell line growth inhibition [IpAb]
Conditions: for viability, T/C: stronger effect = lower value
Summary of the method: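 Spheroids of 60% malignant cells, 25% HUVEC and 15% MSC were exposed to targeted agents combined with ipatasertib or abemaciclib. Doses started at or near clinical Cmax (10 microM when unknown) and fell in half-log steps.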

[1] = curve of first compound, second compound 0.1 µM
[2] = curve of first compound, second compound 0.316 µM
[3] = curve of first compound, second compound 1 µM
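Also: spheroids exposed to the drugs for one week before the viability readout.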
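For viability, T/C in this document: 100% = DMSO vehicle control wells.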

## Cn1nccc1Nc1nccc(-c2ccn(C(CO)c3ccc(Cl)c(F)c3)c(=O)c2)n1 (configuration not stated) + CC(C)NCC(C(=O)N1CCN(c2ncnc3c2C(C)CC3O)CC1)c1ccc(Cl)cc1
[1]
  pIC50: 6.42
[2]
  pIC50: 7.06
[3]
  pIC50: 7.43
Curve of first compound, second compound 3.16 µM
  pIC50: 7.33
Curve of first compound, second compound 10 µM
  pIC50: 6.49
Second compound 0.1 µM, first compound 0.0316 µM
  viability, T/C: 90.9%
Second compound 0.1 µM, first compound 0.1 µM
  viability, T/C: 64.3%
Second compound 0.1 µM, first compound 0.316 µM
  viability, T/C: 55.9%
Second compound 0.1 µM, first compound 1 µM
  viability, T/C: 41.2%
Second compound 0.1 µM, first compound 3.16 µM
  viability, T/C: 23.1%
Second compound 0.1 µM, first compound 10 µM
  viability, T/C: 21.5%
Second compound 0.316 µM, first compound 0.0316 µM
  viability, T/C: 60.1%
Second compound 0.316 µM, first compound 0.1 µM
  viability, T/C: 50%
Second compound 0.316 µM, first compound 0.316 µM
  viability, T/C: 35.2%
Second compound 0.316 µM, first compound 1 µM
  viability, T/C: 27.8%
Second compound 0.316 µM, first compound 3.16 µM
  viability, T/C: 19.7%
Second compound 0.316 µM, first compound 10 µM
  viability, T/C: 11.2%
Second compound 1 µM, first compound 0.0316 µM
  viability, T/C: 50.7%
Second compound 1 µM, first compound 0.1 µM
  viability, T/C: 43.2%
Second compound 1 µM, first compound 0.316 µM
  viability, T/C: 26.6%
Second compound 1 µM, first compound 1 µM
  viability, T/C: 20.9%
Second compound 1 µM, first compound 3.16 µM
  viability, T/C: 14%
Second compound 1 µM, first compound 10 µM
  viability, T/C: 7.18%
Second compound 3.16 µM, first compound 0.0316 µM
  viability, T/C: 51.5%
Second compound 3.16 µM, first compound 0.1 µM
  viability, T/C: 47.3%
Second compound 3.16 µM, first compound 0.316 µM
  viability, T/C: 30.6%
Second compound 3.16 µM, first compound 1 µM
  viability, T/C: 19.9%
Second compound 3.16 µM, first compound 3.16 µM
  viability, T/C: 12.6%
Second compound 3.16 µM, first compound 10 µM
  viability, T/C: 8.87%
Second compound 10 µM, first compound 0.0316 µM
  viability, T/C: 56.3%
Second compound 10 µM, first compound 0.1 µM
  viability, T/C: 59.6%
Second compound 10 µM, first compound 0.316 µM
  viability, T/C: 50.9%
Second compound 10 µM, first compound 1 µM
  viability, T/C: 28.7%
Second compound 10 µM, first compound 3.16 µM
  viability, T/C: 17.9%
Second compound 10 µM, first compound 10 µM
  viability, T/C: 10.5%

## Cn1ncc(Cl)c1-c1cc(C(=O)NC(CN)Cc2cccc(F)c2)sc1Cl (configuration not stated)
Compound 0.0316 µM
  viability, T/C: 99.5% and 99.8%
Compound 0.1 µM
  viability, T/C: 89.4% and 102%
Compound 0.316 µM
  viability, T/C: 74.4% and 79.5%
Compound 1 µM
  viability, T/C: 73.6% and 68.3%
Compound 3.16 µM
  viability, T/C: 85% and 86%
Compound 10 µM
  viability, T/C: 0.3% and 0.39%
Curve of compound
  pIC50: 5.30 and 5.29

## Cn1cnc2c(F)c(Nc3ccc(Br)cc3Cl)c(C(=O)NOCCO)cc21 + CCN1CCN(Cc2ccc(Nc3ncc(F)c(-c4cc(F)c5nc(C)n(C(C)C)c5c4)n3)nc2)CC1
Curve of first compound, second compound 0.01 µM
  pIC50: 6.93
Curve of first compound, second compound 0.0316 µM
  pIC50: 7.31
[1]
  pIC50: > 8.02
[2]
  pIC50: 7.82
[3]
  pIC50: 6.77
Second compound 0.01 µM, first compound 0.00949 µM
  viability, T/C: 62.4%
Second compound 0.01 µM, first compound 0.03 µM
  viability, T/C: 58.7%
Second compound 0.01 µM, first compound 0.0949 µM
  viability, T/C: 50.4%
Second compound 0.01 µM, first compound 0.3 µM
  viability, T/C: 41.3%
Second compound 0.01 µM, first compound 0.949 µM
  viability, T/C: 34%
Second compound 0.01 µM, first compound 3 µM
  viability, T/C: 14.1%
Second compound 0.0316 µM, first compound 0.00949 µM
  viability, T/C: 54.3%
Second compound 0.0316 µM, first compound 0.03 µM
  viability, T/C: 57.5%
Second compound 0.0316 µM, first compound 0.0949 µM
  viability, T/C: 44.5%
Second compound 0.0316 µM, first compound 0.3 µM
  viability, T/C: 35.5%
Second compound 0.0316 µM, first compound 0.949 µM
  viability, T/C: 29.1%
Second compound 0.0316 µM, first compound 3 µM
  viability, T/C: 13.4%
Second compound 0.1 µM, first compound 0.00949 µM
  viability, T/C: 47.2%
Second compound 0.1 µM, first compound 0.03 µM
  viability, T/C: 47.4%
Second compound 0.1 µM, first compound 0.0949 µM
  viability, T/C: 36.4%
Second compound 0.1 µM, first compound 0.3 µM
  viability, T/C: 32.1%
Second compound 0.1 µM, first compound 0.949 µM
  viability, T/C: 24.4%
Second compound 0.1 µM, first compound 3 µM
  viability, T/C: 12.6%
Second compound 0.316 µM, first compound 0.00949 µM
  viability, T/C: 54.7%
Second compound 0.316 µM, first compound 0.03 µM
  viability, T/C: 43.9%
Second compound 0.316 µM, first compound 0.0949 µM
  viability, T/C: 36.1%
Second compound 0.316 µM, first compound 0.3 µM
  viability, T/C: 34.8%
Second compound 0.316 µM, first compound 0.949 µM
  viability, T/C: 25.3%
Second compound 0.316 µM, first compound 3 µM
  viability, T/C: 15.1%
Second compound 1 µM, first compound 0.00949 µM
  viability, T/C: 64.6%
Second compound 1 µM, first compound 0.03 µM
  viability, T/C: 58.2%
Second compound 1 µM, first compound 0.0949 µM
  viability, T/C: 51.5%
Second compound 1 µM, first compound 0.3 µM
  viability, T/C: 47.9%
Second compound 1 µM, first compound 0.949 µM
  viability, T/C: 40.7%
Second compound 1 µM, first compound 3 µM
  viability, T/C: 28.2%
